One assay has as its target D2 receptor (Homo sapiens (Human), UniProt P14416). The assay is described as follows: Radioligand binding assay ([3H]-spiperone) on membranes of HEK293 EBNA cells expressing human D2 receptor. As to conditions: human receptor in HEK293 EBNA cells; 0.7 nM [3H]-spiperone.
A further assay concerns the target D3 receptor (Homo sapiens (Human), UniProt P35462). Kind of assay: Radioligand binding assay ([3H]-spiperone) on membranes of HEK293 EBNA cells expressing human D3 receptor. The following applies: read-out: D3 Ki; human receptor in HEK293 EBNA cells; 0.5 nM [3H]-spiperone.
The target in the next assay is 5-HT2A receptor (Homo sapiens (Human), UniProt P28223). Kind of assay: Radioligand binding assay ([3H]-ketanserin) on membranes of HEK293 EBNA cells expressing human 5-HT2A receptor. The following applies: read-out: 5HT2A Ki.
Setting [1] is: human receptor in HEK293 EBNA cells, 1.1 nM [3H]-ketanserin.

Read-outs that look alike come from different tables or passages of the source.

The values that follow come from US8598357B2, “Benzodioxole piperidine compounds” (Hoffmann-La Roche Inc., priority 2011, dated 2013).

A word on the Ki: it is a measure of affinity in units of concentration, obtained from inhibition or displacement.

D2 receptor, sequence (P14416 whole entry): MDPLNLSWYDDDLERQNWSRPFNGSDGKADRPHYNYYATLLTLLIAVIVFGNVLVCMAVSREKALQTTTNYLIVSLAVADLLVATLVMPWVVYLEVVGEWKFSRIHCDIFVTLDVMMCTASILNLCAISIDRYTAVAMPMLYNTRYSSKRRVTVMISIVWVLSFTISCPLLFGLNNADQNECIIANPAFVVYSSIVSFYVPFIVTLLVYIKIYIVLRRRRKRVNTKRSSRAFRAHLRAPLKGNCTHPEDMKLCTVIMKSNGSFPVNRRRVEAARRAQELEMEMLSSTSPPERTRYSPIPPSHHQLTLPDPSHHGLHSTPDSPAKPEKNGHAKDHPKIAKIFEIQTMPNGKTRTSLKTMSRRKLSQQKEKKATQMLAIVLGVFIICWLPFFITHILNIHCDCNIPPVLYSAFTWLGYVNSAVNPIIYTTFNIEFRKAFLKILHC
D3 receptor, sequence (P35462 whole entry): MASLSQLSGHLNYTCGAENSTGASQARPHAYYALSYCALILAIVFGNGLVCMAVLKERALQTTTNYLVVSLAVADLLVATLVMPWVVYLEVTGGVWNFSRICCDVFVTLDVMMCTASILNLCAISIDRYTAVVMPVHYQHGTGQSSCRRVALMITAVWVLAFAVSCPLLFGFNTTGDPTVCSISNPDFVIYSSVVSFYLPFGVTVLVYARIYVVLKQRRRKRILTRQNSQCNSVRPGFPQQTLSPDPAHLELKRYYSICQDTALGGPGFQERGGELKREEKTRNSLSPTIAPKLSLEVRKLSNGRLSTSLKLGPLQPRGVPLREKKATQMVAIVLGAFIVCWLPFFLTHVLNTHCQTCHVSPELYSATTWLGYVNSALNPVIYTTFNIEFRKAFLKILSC
Procedure for 5-HT2A receptor: (§1) HEK293 EBNA cells were transiently transfected with expression plasmids encoding for the human D2 or D3 or for the human 5-HT2A receptor, respectively. The cells were harvested 48 h post-transfection, washed three times with cold PBS and stored at −80° C. prior to use. The pellet was suspended in cold 50 mM Tris-HCl buffer containing 10 mM EDTA (pH 7.4) and was homogenized with a Polytron (Kinematica AG, Basel, Switzerland) for 20-30 sec at 12.000 rpm. After centrifugation at 48.000×g for 30 min at 4° C., the pellet was resuspended in cold 10 mM Tris-HCl buffer containing 0.1 mM EDTA (pH 7.4), homogenized, and centrifuged as above. This pellet was further resuspended in a smaller volume of ice cold 10 mM Tris-HCl buffer containing 0.1 mM EDTA (pH 7.4) and homogenized with a Polytron for 20-30 sec at 12.000 rpm. The protein content of this homogenate was determined with the Bio-Rad (Bradford) Protein Assay (Biorad Laboratories GmbH, München, Germany) according to the instructions of the manufacturer using gamma globulin as the standard. This homogenate was stored at −80° C. in aliquots and thawed immediately prior to use.
(§2) Aliquots of membrane preparations were thawed at RT, resuspended in assay buffer (D2, D3: 50 mM Tris-HCl, 120 mM NaCl, 5 mM MgCl2, 1 mM EDTA, 5 mM KCl, 1.5 mM CaCl2, pH=7.4; 5-HT2A: 50 mM Tris-HCl, 10 mM MgCl2, 1 mM EGTA, pH=7.4), homogenized with a Polytron for 20-30 sec at 12.000 rpm and adjusted to a final concentration of approximately 7.5 μg protein/well (D2, D3) and 15 μg protein/well (5-HT2A), respectively.
(§3) The nonspecific binding was determined with equally composed reaction mixtures in the presence of 10 μM unlabelled spiperone. Per well 45 μl of Microscint 40 (Perkin Elmer, Schwerzenbach, Switzerland) was added, plates for sealed, shaken for 20 min and counted for 3 min on a Topcount Microplate Scintillation Counter (Can berra Packard SA, Ziirich, Switzerland) with quenching correction.
(§4) The CPM value for each duplicate of a concentration of competing compound was averaged (y1), then the % specific binding was calculated according to the equation (((y1−non-specific)/(total binding−non-specific))×100). Graphs were plotted with the % specific binding using XLfit, a curve fitting program that iteratively plots the data using Levenberg-Marquardt algorithm. The single site competition analysis equation used was y=A+((B−A)/(1+((x/C)D))), where y is the % specific binding, A is the minimum y, B is the maximum y, C is the IC50, x is the log 10 of the concentration of the competing compound and D is the slope of the curve (the Hill Coefficient). […] The affinity constant (K) was calculated using the Cheng-Prusoff equation Ki=(IC50/1+([L]/Kd), where [L] is the concentration of radioligand and Kd is the dissociation constant of the radioligand at the receptor as determined by the saturation isotherm.
Procedure for D2 receptor: as §1, §2, §3, §4
Procedure for D3 receptor: as §1, §2, §3, §4

Take `O=S(=O)(N[C@H]1CC[C@H](CCN2CCC(c3cccc4c3OCO4)CC2)CC1)c1ccc(F)cc1` [Example 71, N-trans-{4-[2-(4-Benzo[1,3]dioxol-4-yl-piperidin-1-yl)-ethyl]-cyclohexyl}-4-fluoro-benzenesulfonamide]: the Ki on D2 receptor is 104 nM; on D3 receptor, 2.63 nM; at 5-HT2A receptor, 65.5 nM.

Take `Cn1cnc(S(=O)(=O)N[C@H]2CC[C@H](CCN3CCC(c4cccc5c4OCO5)CC3)CC2)c1` [Example 72, 1-Methyl-1H-imidazole-4-sulfonic acid-trans-N-{4-[2-(4-benzo[1,3]dioxol-4-yl-piperidin-1-yl)-ethyl]-cyclohexyl}-amide]: the Ki at D2 receptor was found to be 114 nM; at D3 receptor, 12.4 nM; on 5-HT2A receptor (setting [1]) it was 64.8 nM.

For `O=C(N[C@H]1CC[C@H](CCN2CCC(c3cccc4c3OCO4)CC2)CC1)C(F)(F)F` [Example 73, Trans-N-{4-[2-(4-Benzo[1,3]dioxol-4-yl-piperidin-1-yl)-ethyl]-cyclohexyl}-2,2,2-trifluoro-acetamide], the inhibition constant (Ki) was 346 nM at D2 receptor, 21.4 nM on D3 receptor and 37.4 nM on 5-HT2A receptor (setting [1]).

On to `O=C(N[C@H]1CC[C@H](CCN2CCC(c3cccc4c3OCO4)CC2)CC1)N1CCc2ccccc21` [Example 74, 2,3-Dihydro-indole-1-carboxylic acid N-trans-{4-[2-(4-benzo[1,3]dioxol-4-yl-piperidin-1-yl)-ethyl]-cyclohexyl}-amide], for which the results for the inhibition constant Ki on D2 receptor, on D3 receptor and on 5-HT2A receptor were 229 nM, 5.12 nM and 25.4 nM, respectively.

In the case of `CN(C)C(=O)N[C@H]1CC[C@H](CCN2CCC(c3cccc4c3OCO4)CC2)CC1` [Example 75, N-Trans-3-{4-[2-(4-Benzo[1,3]dioxol-4-yl-piperidin-1-yl)-ethyl]cyclohexyl}-1,1-dimethyl-urea], the Ki came out at 52.7 nM at D2 receptor, 32.9 nM on D3 receptor and 45.5 nM at 5-HT2A receptor (setting [1]).

In the case of `O=C(CF)N[C@H]1CC[C@H](CCN2CCC(c3cccc4c3OCO4)CC2)CC1` [Example 76, Trans-N-{4-[2-(4-Benzo[1,3]dioxol-4-yl-piperidin-1-yl)-ethyl]-cyclohexyl}-2-fluoro-acetamide], the Ki on D2 receptor is 230 nM; at D3 receptor, 12.4 nM; on 5-HT2A receptor (setting [1]), 39.9 nM.

In the case of `O=C(Nc1ccc(Cl)cc1)N[C@H]1CC[C@H](CCN2CCC(c3cccc4c3OCO4)CC2)CC1` [Example 77, N-trans-1-{4-[2-(4-Benzo[1,3]dioxol-4-yl-piperidin-1-yl)-ethyl]-cyclohexyl}-3-(4-chloro-phenyl)-urea], the Ki worked out at 2710 nM on D2 receptor, 23.6 nM on D3 receptor and 224 nM at 5-HT2A receptor (setting [1]).

Turning to `CN(C)S(=O)(=O)N[C@H]1CC[C@H](CCN2CCC(c3cccc4c3OCO4)CC2)CC1` [Example 78, Trans-N-{4-[2-(4-benzo[1,3]dioxol-4-yl-piperidin-1-yl)-ethyl]-cyclohexyl}-N,N-dimethyl-sulfamide], the Ki at D2 receptor came out at 229 nM; on D3 receptor it was 11.6 nM; at 5-HT2A receptor (setting [1]), 20.7 nM.

For `O=S(=O)(N[C@H]1CC[C@H](CCN2CCC(c3cccc4c3OCO4)CC2)CC1)N1CCOCC1` [Example 79, Morpholine-4-sulfonic acid-Trans-N-{4-[2-(4-benzo[1,3]dioxol-4-yl-piperidin-1-yl)-ethyl]-cyclohexyl}-amide], the results for the Ki on D2 receptor, at D3 receptor and on 5-HT2A receptor were 229 nM, 6.11 nM and 56.1 nM, respectively.
